Structures are written as SMILES. Entries after “also recorded” stand apart in the source; their conditions may differ. A value given as a limit tells only on which side of the number the result lay.

One compound from patent US20170280722A1, “COMPOSITIONS AND METHODS FOR CONTROL OF SAND FLIES AND OTHER BLOOD SUCKING INSECTS” (GENESIS LABORATORIES, INC., priority 2010, published 2017) can be followed below.

What all share (assay type): in vivo
The subject of series [1] is P. argentipes 1st instar larvae. Put plainly: Larval bioassay with feces of insecticide treated R. rattus (feed through). On the procedure: In the first study, a feed through study comparing diflubenzuron, fipronil, ivermectin, and eprinomectin was conducted on rats (Rattus rattus). Fecal samples were collected after three (3) consecutive days of administration of the trial products. The efficacy of the drugs administered during the blind study underwent testing in larval bioassays with P. argentipes 1st instar larvae. Commercially available chicken feed was mixed with the appropriate concentrations of each insecticide compound and used as is in the trial.
Twelve (12) locally purchased rats (Rattus rattus) of mixed sex were utilized in a small study testing the efficacy of four feed through insecticides. Five treatment groups of two rats each were randomly identified and fed diets consisting of locally available chicken feed treated with one of the following compounds: diflubenzuron (0.048%), fipronil (0.015%), ivermectin (0.025%), and eprinomectin (0.01% and 0.025%). Two rats served as control and were fed only chicken feed. Rats were fed 20 g of their assigned diet daily at the same time, with daily consumption and spillage calculated for a period of three (3) days. Sand fly analyses were conducted simultaneously.
[…] Collected feces were dried at approximately 40° C. in an oven then ground into a fine powder utilizing a pestle and mortar and frozen at −20° C. until larval bioassays were initiated.
Larval bioassay pots were prepared using 48 mm, 100 g round Dibbi jars. Dishes were prepared by burning several small holes into the bottom of the dish with a soldering iron and filling them with a small layer of plaster (¼ to ½ inch depth). Approximately 15-20 holes were punctured into the lids using 24 gauge needles. For simpler mortality counting, pots were quartered and each quadrant numbered using an ultra fine black Sharpie.
For each individual post-treatment bioassays, thirteen (13) dishes were loaded with 10 day old 1st instar P. argentipes larvae; twelve (12) pots were provided with approximately 0.005 g of the treated feces, with two sample pots per treated bandicoot rat, and one overall control sample fed only standard larval diet. See Table 1 for sample/treatment correlations. Larvae were loaded into bioassay pots and provided with their designated treatment sample. Mortality counts of larvae were conducted every 24 hours post-treatment until 100% mortality, or pupation, was reached.

For another series, the system named is adult P. argentipes. In words: Adult sand fly bioassay, bloodfeeding on fipronil treated B. bengalensis. Conditions: for Time after 1 hour exposure to 100% mortality of adult P. argentipes: bloodfeeding 20 days after treatment; for Adult sand fly mortality: across treatment groups. On the procedure: The B. bengalensis fipronil study was conducted in two portions. In the first of the two segments, three randomly selected B. bengalensis were offered a fipronil (250 ppm) treated diet at 25 g daily. One rat served as control and was fed an untreated diet. In the second portion of the study, the remaining animals were randomly divided into two groups of two. Two individuals in the first group were offered 25 g of 100 ppm fipronil-treated feed each and two rats in the second group were each offered 25 g of 50 ppm fipronil-treated diet. One rat served as control and was fed an untreated diet.
Test animals were provided treated feed for two consecutive days. Diets were prepared by utilizing locally available poultry feed treated with technical grade fipronil to predetermined concentrations. Consumption was calculated daily, feed refilled to a predetermined level of 25 g, and feces cleared. At the end of the second day, treated feed was cleared, final consumption weighed, and feed replaced with untreated locally available poultry feed. Feces were collected, noted as day-1 post-treatment and properly stored for use in assays. Observation of test animals continued for twenty days post-treatment, with additional collection of feces for testing conducted 5, 10, and 20 days post-treatment. On days when fecal collection occurred, all newspaper/bedding was replaced at 0800 hours and feces collected at the end of the day for preservation. Collected feces were dried overnight at approximately 40° C., ground into a fine powder with a pestle and mortar and frozen at −20° C. until larval bioassays were initiated.
Adult sand fly bioassays were conducted 1, 5, 10 and 20 days post feed-through treatment of B. bengalensis. B. bengalensis were anesthetized with 15 units of ketamine (KetaJet 50, SterFil Laboratories Pvt. Ltd., Ankleshwar, India) via intramuscular injection. The belly of each rat was shaved using an electric razor and a mesh covered plastic capsule (20 mm diameter, 25 mm height) containing 20 adult female and 5 adult male P. argentipes was affixed to the shaved area with medical tape. The capsules had about 10 small holes burned into the top with a heated 24 gauge needle. Capsules remained in place for one hour, covered with a light cloth to maintain warmth and reduce light. At the end of one hour, the capsules were removed and observations for mortality conducted immediately, at 12 hours post-feeding, and every 24 hours thereafter for up to 5 days post-exposure. Partially fed sand flies were included in analyses as “bloodfed” specimens. Unfed sand flies were removed, and bloodfed sand flies were observed collectively by treatment group.

In series [2] the test system is adult sand flies (P. argentipes). Put plainly: Adult sand fly bioassay on cattle given oral fipronil. How it is done: The test substance was given to the cattle orally as a single application. The oral treatment was by hand. Because the oral treatment was delivered in capsule form the dosage was very precise.
The four dose levels of fipronil for the treatment groups used in this study were as follows: 0.5, 1.0, 2.0 and 4.0 mg/kg. These were weighed with an analytical balance to the nearest 0.01 g and presented in gelatin capsules.
A breeding colony of P. argentipes was established during 2009 and is situated in Patna. The colony contains an average of 10,000 sand flies. Adults and larvae are used routinely for studies and are maintained under controlled temperature and humidity conditions.
Adult sand flies used in this study were transferred to a mud plastered hut built next to the cattle shed. This was to acclimate lab-ready sand flies to natural environmental conditions in which the study was to be conducted. The sand flies were kept in 0.4 m^3 cloth mesh enclosures.
Adult sand fly bioassays were conducted on days 1, 3, 5, 7, 14, 21, and 28 after oral administration of fipronil. […] Sand flies were counted and placed in a sand fly feeding capsule (10 cm diameter×2 cm deep). […]
Two sand fly feeding capsules were used per cow. […] Sand flies were allowed to feed for 60 minutes and were monitored closely throughout the feeding period. […]

Where [3] appears, read: feces of R. rattus day-1 post treatment, 150 ppm.

`N#Cc1nn(-c2c(Cl)cc(C(F)(F)F)cc2Cl)c(N)c1[S+]([O-])C(F)(F)F` (stereo not shown) [fipronil]: the “Mean ± SEM survival (days) of P. arg larvae post-exposure” value in series [1] (setting [3]) is recorded as 2.25 ± 0.10 days. Besides, the “P. argentipes larvae mortality (%)” value in series [1] (setting [3]) is on record as 100%. The “Day of observation by which 100% larval mortality was reached” value in series [1] (feces of R. rattus fed 0.015% in feed) was not above 3 days. Also, the “Time to paralysis of larvae after exposure” value in series [1] (larvae exposed to feces of fipronil-treated animals) was not above 24 h. Also, the “Speed of mortality and duration of effectiveness compared with the other compounds tested” value in series [1] (larval P. argentipes, rodent feed through trials) is “quickest mortality and longest lasting effectiveness of all of the compounds tested; also recorded: quickest knockdown and longest lasting efficacy of all of the insecticides examined”. In the series with adult P. argentipes (bloodfed on rodents treated as much as 20 days previously, all treatment levels), the “Mortality of bloodfeeding adult P. argentipes” value is on record as 100%. Moreover, the entries for the “Time after 1 hour exposure to 100% mortality of adult P. argentipes” value with adult P. argentipes (50 ppm), with adult P. argentipes (100 ppm) and in the series with adult P. argentipes (250 ppm) were 5 days, 3 days and 4 days, respectively. In addition, the “Adult sand fly mortality” value in the series on adult P. argentipes (bloodfeeding on rodents 1 day after treatment) and in the series on adult P. argentipes (bloodfeeding on rodents 5 days after treatment) was 100% throughout. For the same compound, the “Time to death of adult sand flies” value is “dead by the end of the one hour exposure period” in the series on adult P. argentipes (day 1, all treatment groups (50 ppm, 100 ppm, and 250 ppm)); “dead by the end of the one hour exposure period” in the series with adult P. argentipes (day 5, 250 and 100 ppm treatment groups). The “Time to 100% mortality of adult sand flies” value with adult P. argentipes (day 5, 50 ppm treatment group) turned out to be 24 h. In addition, in series [2] (cattle, oral, without having an impact on milk residues), the “Level of control of adult sand flies as a systemic” value was “high levels of control were not attainable”. The “Adult sand fly mortality versus dose level” value in series [2] (days 14 and 21 post-treatment, one hour exposure to cattle, 0.5-4.0 mg/kg) is given as “mortality increased with dose level”.
